Experimental data published in US20100311729A1, “Substituted imidazopyridazines and pyrrolopyrimidines as lipid kinase inhibitors” (priority 2007, published 2010).

What was measured:
Assay type in all cases: biochemical
[1] = target: T1, PI3K alfa (Homo sapiens, UniProt P42336); experiment: PI3 kinase assay (Kinase-Glo luminescence), PI3K alfa; conditions: Enzymatic Data; read-out: PI3K alfa IC50 [umol]
T1 construct: for the p110-a subunit (with a deletion of the first 20 amino acids); His tag (C); made in house; host or cells: baculovirus; Tn5 (Trichoplusia ni) or TiniPro insect cells
T1 sequence (P42336 with tags, fused parts or gaps limits assumed): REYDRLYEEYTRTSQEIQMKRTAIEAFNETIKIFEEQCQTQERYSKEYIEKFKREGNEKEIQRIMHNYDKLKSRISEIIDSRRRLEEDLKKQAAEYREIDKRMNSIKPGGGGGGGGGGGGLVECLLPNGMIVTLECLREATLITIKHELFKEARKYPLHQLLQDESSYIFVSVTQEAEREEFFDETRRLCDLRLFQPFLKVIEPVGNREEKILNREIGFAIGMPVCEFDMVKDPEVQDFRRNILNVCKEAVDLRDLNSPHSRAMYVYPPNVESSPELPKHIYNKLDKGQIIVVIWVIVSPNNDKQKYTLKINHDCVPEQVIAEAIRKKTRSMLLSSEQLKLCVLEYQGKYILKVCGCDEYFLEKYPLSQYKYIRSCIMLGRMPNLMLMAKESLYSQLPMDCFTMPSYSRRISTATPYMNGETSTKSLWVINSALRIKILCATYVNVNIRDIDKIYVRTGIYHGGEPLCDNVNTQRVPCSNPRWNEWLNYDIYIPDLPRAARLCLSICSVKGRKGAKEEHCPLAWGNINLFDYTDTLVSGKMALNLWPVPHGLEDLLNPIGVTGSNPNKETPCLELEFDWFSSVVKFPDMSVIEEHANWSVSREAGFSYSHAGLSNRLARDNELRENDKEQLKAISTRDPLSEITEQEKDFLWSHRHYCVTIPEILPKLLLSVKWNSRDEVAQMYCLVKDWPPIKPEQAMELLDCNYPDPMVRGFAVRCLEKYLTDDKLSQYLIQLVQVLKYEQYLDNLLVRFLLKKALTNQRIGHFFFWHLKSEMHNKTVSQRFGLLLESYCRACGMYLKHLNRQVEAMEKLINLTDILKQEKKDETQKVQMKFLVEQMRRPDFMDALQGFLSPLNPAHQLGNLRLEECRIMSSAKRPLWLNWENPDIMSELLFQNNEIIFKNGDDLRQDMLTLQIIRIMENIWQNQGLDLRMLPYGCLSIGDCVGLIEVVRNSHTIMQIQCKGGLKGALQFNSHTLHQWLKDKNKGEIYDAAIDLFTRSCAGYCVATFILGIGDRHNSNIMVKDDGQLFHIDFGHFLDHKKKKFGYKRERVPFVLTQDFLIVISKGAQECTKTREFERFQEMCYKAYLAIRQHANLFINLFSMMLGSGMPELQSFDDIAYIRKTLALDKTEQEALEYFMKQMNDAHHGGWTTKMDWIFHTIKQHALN
Protocol: (§1) In a more preferred assay, the kinase reaction is performed in a final volume of 10 μL per well of a low volume non binding CORNING, 384 well black plate (Cat. No. #3676). The final concentrations of ATP and phosphatidyl inositol (PI) in the assay are 1 μM and 10 μg/mL respectively. The reaction is started by the addition of ATP.
(§2) The components of the assay are added per well as follows:
(§3) 50 nL test compounds in 90% DMSO per well, in columns 1-20, 8 concentrations (1/3 and 1/3.33 serial dilution step) in single. • Low control: 50 nL of 90% DMSO in half the wells of columns 23-24 (0.45% in final). • High control: 50 nL of reference compound (e.g. compound of Example 7 in WO 2006/122806, incorporated by reference hereinin that regard) in the other half of columns 23-24 (2.5 μM in final). • Standard: 50 nL of reference compound as just mentioned diluted as the test compounds in columns 21-22 • 20 mL ‘buffer’ are prepared per assay: • 200 μL of 1M TRIS HCl pH7.5 (10 mM in final) • 60 μL of 1M MgCl2 (3 mM in final) • 500 μL of 2M NaCl (50 mM in final) • 100 μL of 10% CHAPS (0.05% in final) • 200 μL of 100 mM DTT (1 mM in final) • 18.94 mL of nanopure water • 10 mL ‘PI’ are prepared per assay: • 200 μL of 1 mg/ml L-alpha-Phosphatidylinositol (Liver Bovine, Avanti Polar Lipids Cat. No. 840042C MW=909.12) prepared in 3% OctylGlucoside (10 μg/ml in final) • 9.8 mL of ‘buffer’ • 10 mL ‘ATP’ are prepared per assay: • 6.7 μL of 3 mM stock of ATP giving a final concentration of 1 μM per well • 10 mL of ‘buffer’ • 2.5 mL of each PI3K construct are prepared per assay in ‘PI’ with the following final concentration : • 10 nM PI3K alfa B-1075 • 25 nM beta BV-949 • 10 nM delta BV-1060 • 150 nM gamma BV-950 • 5 μL of ‘PI/PI3K’ are added per well. • 5 μl ‘ATP’ are added per well to start the reaction. • The plates are then incubated at room temperature for 60 minutes (alfa, beta, delta) or 120 minutes (gamma). • The reaction is terminated by the addition of 10 μL Kinase-Glo (Promega Cat. No. #6714). • The assay plates are read after 10 minutes in Synergy 2 reader (BioTek, Vermont USA) with an integration time of 100 milliseconds and sensitivity set to 191. • Output : The High control is around 60'000 counts and the Low control is 30'000 or lower • This luminescence assay gives a useful Z′ ratio between 0.4 and 0.7
(§4) […] is determined by a four parameter curve fitting routine that comes aloneg with “excel fit”. A 4 Parameter logistic equation is used to calculate IC50 values (IDBS XLfit) of the percentage inhibition of each compound at 8 concentrations (usually 10, 3.0, 1.0, 0.3, 0.1, 0.030, 0.010 and […]). Alternatively, IC50 values are calculated using idbsXLfit model 204, which is a 4 parameter logistic model.
(§5) Testing with the following kinases in the test system mentioned above, with the kinases given in the following tables, the following IC 50 data can be obtained: […]

[2] = target: T2, PI3K beta (Homo sapiens, UniProt P42338); experiment: PI3 kinase assay (Kinase-Glo luminescence), PI3K beta; conditions: Enzymatic Data; read-out: PI3K beta IC50 [umol]
T2 construct: for the full-length p110-b subunit are generated and fused by overlapping PCR; His tag (C); made in house; host or cells: baculovirus; Tn5 (Trichoplusia ni) or TiniPro insect cells
T2 sequence (P42338 with tags, fused parts or gaps limits assumed): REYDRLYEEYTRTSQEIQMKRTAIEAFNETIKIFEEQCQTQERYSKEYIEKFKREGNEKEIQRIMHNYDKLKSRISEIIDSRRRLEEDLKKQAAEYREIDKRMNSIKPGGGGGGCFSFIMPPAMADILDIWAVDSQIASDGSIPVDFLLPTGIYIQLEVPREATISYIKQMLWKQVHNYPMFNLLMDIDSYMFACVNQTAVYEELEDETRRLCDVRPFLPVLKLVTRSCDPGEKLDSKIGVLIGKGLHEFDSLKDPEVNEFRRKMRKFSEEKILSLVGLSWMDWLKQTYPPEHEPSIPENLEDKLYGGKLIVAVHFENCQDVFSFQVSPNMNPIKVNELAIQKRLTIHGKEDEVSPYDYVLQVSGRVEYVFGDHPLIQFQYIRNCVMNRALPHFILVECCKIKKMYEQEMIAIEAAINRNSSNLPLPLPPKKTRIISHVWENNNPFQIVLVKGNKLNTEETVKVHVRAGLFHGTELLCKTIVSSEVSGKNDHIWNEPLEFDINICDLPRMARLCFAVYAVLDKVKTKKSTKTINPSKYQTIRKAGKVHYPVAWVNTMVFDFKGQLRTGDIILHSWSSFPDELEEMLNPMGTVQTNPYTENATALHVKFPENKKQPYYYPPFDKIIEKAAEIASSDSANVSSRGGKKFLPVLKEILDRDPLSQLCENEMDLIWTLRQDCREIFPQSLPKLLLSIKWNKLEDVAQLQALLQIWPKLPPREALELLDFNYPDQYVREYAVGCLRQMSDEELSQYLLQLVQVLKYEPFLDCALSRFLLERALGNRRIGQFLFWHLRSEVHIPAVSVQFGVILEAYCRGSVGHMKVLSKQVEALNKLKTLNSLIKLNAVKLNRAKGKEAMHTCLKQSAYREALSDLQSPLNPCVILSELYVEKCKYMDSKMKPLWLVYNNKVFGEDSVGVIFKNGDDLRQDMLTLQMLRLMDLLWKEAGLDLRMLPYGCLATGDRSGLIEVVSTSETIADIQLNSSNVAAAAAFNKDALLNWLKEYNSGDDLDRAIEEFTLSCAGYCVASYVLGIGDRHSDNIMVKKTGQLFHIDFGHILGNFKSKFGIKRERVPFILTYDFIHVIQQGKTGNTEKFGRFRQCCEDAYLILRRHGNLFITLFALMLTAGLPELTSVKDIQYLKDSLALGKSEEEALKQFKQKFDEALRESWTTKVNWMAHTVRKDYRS
Protocol: as §1, §2, §3, §4, §5

[3] = target: T3, PI3K gamma (Homo sapiens, UniProt P48736); experiment: PI3 kinase assay (Kinase-Glo luminescence), PI3K gamma; conditions: Enzymatic Data; read-out: PI3K gamma IC50 [umol]
T3 construct: PI3Kγ BV-950 p110g(D144aa)-C-Term His Tag; His tag (C); made in house; host or cells: construct from the Roger Williams lab (MRC LMB) in pVL1393; baculovirus; Tn5 (Trichoplusia ni) or TiniPro insect cells
T3 sequence (P48736 144-1102 limits assumed): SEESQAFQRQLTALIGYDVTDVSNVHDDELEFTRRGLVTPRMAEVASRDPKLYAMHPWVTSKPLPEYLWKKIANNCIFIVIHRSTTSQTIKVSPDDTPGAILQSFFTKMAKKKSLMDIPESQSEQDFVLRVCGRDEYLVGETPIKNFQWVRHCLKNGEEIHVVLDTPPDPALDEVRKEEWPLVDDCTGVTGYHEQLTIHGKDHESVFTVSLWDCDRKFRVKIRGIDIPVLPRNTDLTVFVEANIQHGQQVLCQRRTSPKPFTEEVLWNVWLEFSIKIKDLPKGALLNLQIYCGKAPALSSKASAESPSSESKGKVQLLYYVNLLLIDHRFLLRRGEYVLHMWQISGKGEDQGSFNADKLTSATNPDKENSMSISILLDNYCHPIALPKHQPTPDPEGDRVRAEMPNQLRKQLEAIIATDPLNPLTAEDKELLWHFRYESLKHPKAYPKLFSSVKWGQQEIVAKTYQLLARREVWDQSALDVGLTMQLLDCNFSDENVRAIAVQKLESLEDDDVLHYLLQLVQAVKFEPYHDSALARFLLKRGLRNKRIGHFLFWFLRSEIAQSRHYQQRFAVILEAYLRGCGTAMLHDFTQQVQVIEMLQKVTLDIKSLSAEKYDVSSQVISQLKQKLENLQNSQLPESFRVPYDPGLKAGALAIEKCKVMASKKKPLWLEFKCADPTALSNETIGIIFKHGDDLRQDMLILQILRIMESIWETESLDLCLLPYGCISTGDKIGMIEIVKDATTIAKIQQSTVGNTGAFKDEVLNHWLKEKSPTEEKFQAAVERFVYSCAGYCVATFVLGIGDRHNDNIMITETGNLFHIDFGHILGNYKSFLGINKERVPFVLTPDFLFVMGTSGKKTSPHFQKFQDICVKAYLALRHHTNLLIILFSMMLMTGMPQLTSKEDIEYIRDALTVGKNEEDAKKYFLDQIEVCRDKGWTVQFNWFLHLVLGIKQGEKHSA
Protocol: as §1, §2, §4

[4] = target: T4, PI3K delta (Homo sapiens, UniProt O00329); experiment: PI3 kinase assay (Kinase-Glo luminescence), PI3K delta; conditions: Enzymatic Data; read-out: PI3K delta IC50 [umol]
T4 construct: for the full-length p110-d subunit are generated and fused by overlapping PCR; His tag (C); made in house; host or cells: baculovirus; Tn5 (Trichoplusia ni) or TiniPro insect cells
T4 sequence (O00329 with tags, fused parts or gaps limits assumed): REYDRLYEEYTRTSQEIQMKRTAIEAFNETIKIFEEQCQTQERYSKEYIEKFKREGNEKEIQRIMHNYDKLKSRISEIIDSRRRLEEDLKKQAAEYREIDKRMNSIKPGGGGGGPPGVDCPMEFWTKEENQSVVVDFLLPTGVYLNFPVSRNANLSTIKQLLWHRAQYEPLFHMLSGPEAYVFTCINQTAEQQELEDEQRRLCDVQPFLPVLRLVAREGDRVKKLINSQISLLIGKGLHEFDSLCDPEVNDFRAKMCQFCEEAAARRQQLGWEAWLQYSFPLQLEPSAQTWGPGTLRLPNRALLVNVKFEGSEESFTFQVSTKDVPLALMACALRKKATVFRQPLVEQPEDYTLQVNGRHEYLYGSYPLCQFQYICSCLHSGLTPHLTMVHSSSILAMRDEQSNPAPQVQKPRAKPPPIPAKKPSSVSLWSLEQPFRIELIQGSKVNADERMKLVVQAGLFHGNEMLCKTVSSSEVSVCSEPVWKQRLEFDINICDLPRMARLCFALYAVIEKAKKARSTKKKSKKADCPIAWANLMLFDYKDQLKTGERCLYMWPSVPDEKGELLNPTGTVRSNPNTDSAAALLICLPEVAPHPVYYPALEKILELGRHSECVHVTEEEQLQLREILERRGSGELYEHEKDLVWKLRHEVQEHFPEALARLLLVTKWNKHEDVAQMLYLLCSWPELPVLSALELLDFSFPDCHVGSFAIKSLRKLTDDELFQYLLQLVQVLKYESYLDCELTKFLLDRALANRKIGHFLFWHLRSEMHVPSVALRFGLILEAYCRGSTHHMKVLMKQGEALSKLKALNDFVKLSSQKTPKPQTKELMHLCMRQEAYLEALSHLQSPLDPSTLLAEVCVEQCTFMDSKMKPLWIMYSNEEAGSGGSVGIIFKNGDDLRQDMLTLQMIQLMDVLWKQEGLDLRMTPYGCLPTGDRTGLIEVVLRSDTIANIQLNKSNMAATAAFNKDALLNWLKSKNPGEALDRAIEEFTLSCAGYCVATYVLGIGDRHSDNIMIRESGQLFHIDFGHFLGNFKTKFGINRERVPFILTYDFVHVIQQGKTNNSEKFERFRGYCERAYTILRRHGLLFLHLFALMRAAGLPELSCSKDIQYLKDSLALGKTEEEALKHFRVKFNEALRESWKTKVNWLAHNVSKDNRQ
Protocol: as §1, §2, §3, §4, §5

| IC50 [1] | IC50 [2] | IC50 [3] | IC50 [4] | Structure (SMILES) |
| --- | --- | --- | --- | --- |
| 19 nM | 40 nM | 404 nM | 14 nM | CCN(CC)CCn1cnc2cc(-c3cnc4ccc(-c5cnc(N)c(C(F)(F)F)c5)nn34)cnc21 [Example 149, 5-{3-[3-(2-Diethyl-amino-ethyl)-3H-imidazo [4,5-b]pyridin-6-yl]-imidazo [1,2-b]pyridazin-6-yl}-3-trifluoro-methyl-pyridin-2-ylamine] |
| 6 nM | 59 nM | 928 nM | 20 nM | Nc1ncc(-c2ccc3ncc(-c4ccc(C(=O)O)c(F)c4)n3n2)cc1C(F)(F)F [Example 95, 4-[6-(6-Amino-5-trifluoro-methyl-pyridin-3-yl)-imidazo [1,2-b]pyridazin-3-yl]-2-fluoro-benzoic acid] |
| 130 nM | 2060 nM | 4040 nM | 1060 nM | COc1cccc(-c2ccc3ncc(-c4cnc5[nH]ccc5c4)n3n2)c1 [Example 78, 6-(3-Methoxy-phenyl)-3-{1H-pyrrolo [2.3-b]pyridin-5-yl)-imidazo [1,2-b] pyridazine] |
| 94 nM | 701 nM | 111 nM | 97 nM | CC(C)C(=O)NCCOc1ccc(-c2ccc3ncc(-c4cnc(N)c(C(F)(F)F)c4)n3n2)cc1 [Example 86, N-(2-{4-[3-(6-Amino-5-trifluoro-methyl-pyridin-3-yl)-imidazo [1,2-b]pyridazin-6-yl]-phenoxy}-ethyl)-isobutyramide] |
| 725 nM | > 9100 nM | > 9100 nM | 3950 nM | CC(C)(C)OC(=O)NCCOc1ccc(-c2ccc3ncc(-c4cnc(N)c(C(F)(F)F)c4)n3n2)cc1 [Example 73, (2-{4-[3-(6-Amino-5-trifluoro-methyl-pyridin-3-yl)-imidazo [1,2-b]pyridazin-6-yl]-phenoxy}-ethyl)-carbamic acid tert-butyl ester] |
| 43 nM | 1270 nM | 1060 nM | 17 nM | Nc1ncc(-c2ccc3ncc(-c4ccc(S(=O)(=O)N5CCOCC5)cc4)n3n2)cc1C(F)(F)F [Example 102, 5-{3-[4-(Morpholine-4-sulfonyl)-phenyl]-imidazo[1,2-b]pyridazin-6-yl}-3-trifluoromethyl-pyridin-2-ylamine] |
| 28 nM | 2940 nM | 2210 nM | 120 nM | O=C1CCCN1CCOc1ccc(-c2ccc3ncc(-c4cnc5[nH]ccc5c4)n3n2)cc1 [Example 98, 1-(2-{4-[3-(1H-Pyrrolo[2,3-b]pyridin-5-yl)-imidazo [1,2-b]pyridazin-6-yl]-phenoxy}-ethyl)-pyrrolidin-2-one] |
| 43 nM | 986 nM | 1400 nM | 199 nM | Nc1ncc(-c2cnc3ccc(-c4ccc(C(=O)NCCN5CCOCC5)cc4)nn23)cc1C(F)(F)F [Example 122, 4-[3-(6-Amino-5-trifluoro-methyl-pyridin-3-yl)-imidazo [1,2-b]pyridazin-6-yl]-N-(2-morpholin-4-yl-ethyl)-benzamide] |
| 106 nM | 2060 nM | 2070 nM | 224 nM | Nc1ncc(-c2ccc3ncc(-c4ccc(OCCCc5ccncc5)cc4)n3n2)cc1C(F)(F)F [Example 174, 5-{3-[4-(3-Pyridin-4-yl-propoxy)-phenyl]-imidazo [1,2-b]pyridazin-6-yl}-3-trifluoro-methyl-pyridin-2-ylamine] |
| 347 nM | > 9100 nM | 1300 nM | 576 nM | O=C(NCCCOc1ccc(-c2ccc3ncc(-c4cncc(C(F)(F)F)c4)n3n2)cc1)C1CC1 [Example 130, Cyclo-propane-carboxylic acid (3-{4-[3-(5-trifluoro-methyl-pyridin-3-yl)-imidazo [1,2-b]pyridazin-6-yl]-phenoxy}-propyl)-amide] |
| 87 nM | > 9100 nM | > 9100 nM | 2140 nM | Nc1ncc(-c2cnc3ccc(-c4ccc(OCCCNC(=O)C5CC5)cc4)nn23)cc1C(F)(F)F [Example 58, Cyclopropanecarboxylic acid (3-{4-[3-(6-amino-5-trifluoromethyl-pyridin-3-yl)-imidazo[1,2-b]pyridazin-6-yl]-phenoxy}-propyl)-amide] |
| 3900 nM | > 9100 nM | 2920 nM | 448 nM | COc1ccccc1-c1ccn2ncc(-c3ccc(C(N)=O)cc3)c2n1 [Example 179, 4-[5-(2-Methoxy-phenyl)-pyrazolo[1,5-a]pyrimidin-3-yl]-benzamide] |
| 54 nM | 2540 nM | 1730 nM | 280 nM | Nc1ncc(-c2cnc3ccc(-c4ccc(OCC5(NC(=O)C6CC6)COC5)cc4)nn23)cc1C(F)(F)F [Example 146, Cyclopropanecarboxylic acid (3-{4-[3-(6-amino-5-trifluoromethyl-pyridin-3-yl)-imidazo[1,2-b]pyridazin-6-yl]-phenoxymethyl}-oxetan-3-yl)-amide] |
| 203 nM | 183 nM | 56 nM | 167 nM | NCCCOc1ccc(-c2ccc3ncc(-c4cnc(N)c(C(F)(F)F)c4)n3n2)cc1 [Example 56, 5-{6-[4-(3-Amino-propoxy)-phenyl]-imidazo [1,2-b]pyridazin-3-yl}-3-trifluoro-methyl-pyridin-2-ylamine] |
| 205 nM | 1000 nM | 884 nM | 428 nM | COc1cc(-c2ccc3ncc(-c4cnc(N)c(C(F)(F)F)c4)n3n2)ccc1OCCNC(=O)C1CC1 [Example 61, Cyclo-propane-carboxylic acid (2-{4-[3-(6-amino-5-trifIuoro-methyl-pyridin-3-yl)-imidazo [1,2-b)pyridazin-6-yl]-2-methoxy-phenoxy}-ethyl)-amide] |
| 11 nM | 331 nM | > 9100 nM | 92 nM | Nc1ncc(-c2cnc3ccc(-c4ccc(OCCCNC(=O)C5CC5)nc4)nn23)cc1C(F)(F)F [Example 177, Cyclo-propane-carboxylic acid (3-{5-[3-(6-amino-5-trifluoro-methyl-pyridin-3-yl)-imidazo [1,2-b]pyridazin-6-yl]-pyridin-2-yloxy}-propyl)-amide] |
| 26 nM | 112 nM | 703 nM | 15 nM | Nc1ncc(-c2ccc3ncc(-c4ccc5c(cnn5CCN5CCOCC5)c4)n3n2)cc1C(F)(F)F [Example 131, 5-{3-[1-(2-Morpholin-4-yl-ethyl)-1H-indazol-5-yl]-imidazo [1,2-b]pyridazin-6-yl}-3-trifluoro-methyl-pyridin-2-ylamine] |
